One assay relates to A. baumannii. Kind of assay: MIC by broth dilution, A. baumannii. It counts as cell-based. As to conditions: Acinetobacter baumannii; Mueller-Hinton broth, overnight 37° C.; Table 1; read-out: MIC (μg/mL) A. baumannii. The protocol: (§1) The antibacterial efficacy of the ammonium compounds was assessed. Minimum inhibitory concentrations (MICs) were determined by broth dilution method. Dilutions of each compound, ranging from 1 μg/mL to 256 μg/mL (final concentrations) were prepared in Mueller-Hinton broth. Compound dilutions were added to wells of a 96-well plate, with the concentration of the compound increasing 2-fold by row. Each well contained 5×10^5 CFU/ml of target bacterium in a total volume of 100 μl. Plates were incubated overnight at 37° C. The following day, plates were evaluated for a visual change in growth to determine the MIC. The concentration value corresponding to the first row that no longer had visible bacterial growth, as evaluated by turbidity in the wells, was recorded as the MIC. MIC values were representative of at least biological duplicates, each made up of technical triplicates. The antibacterial efficacy of ammonium compounds in the presence of human plasma was assessed. Minimum inhibitory concentrations (MICs) were determined by broth dilution method. Dilutions of each compound, ranging from 1 μg/mL to 256 μg/mL (final concentrations) were prepared in Mueller-Hinton broth. For the plasma containing samples, compound dilutions were made in Mueller-Hinton broth and supplemented with 5% (final %) human plasma (esterases). Compound dilutions were added to wells of a 96-well plate, with the concentration of the compound increasing 2-fold by row. Each well contained 5×10^5 CFU/mL of target bacterium in a total volume of 100 μL. Plates were incubated overnight at 37° C. The following day, plates were evaluated for a visual change in growth to determine the MIC. The concentration value corresponding to the first row that no longer had visible bacterial growth, as evaluated by turbidity in the wells, was recorded as the MIC. MIC values were representative of at least biological duplicates, each made up of technical triplicates.
For orientation: In broth dilution the organism is exposed to a series of concentrations in liquid medium.

The test system of the next assay is S. aureus. Put plainly: MIC by broth dilution, S. aureus. It counts as cell-based. To be noted: Staphylococcus aureus; Mueller-Hinton broth, overnight 37° C.; Table 1; read-out: MIC (μg/mL) S. aureus. The protocol: as §1

In the case of `CCCCCCCCOc1ccccc1C(=O)Nc1ccc(C(=O)OCC[N+](CC)(CC)CC)cc1.[Br-]` [Compound 29, N,N,N-Triethyl-2-((4-(2-(octyloxy)benzamido)benzoyl)oxy)ethan-1-aminium bromide], the values for the MIC in the assay with A. baumannii and in the assay with S. aureus were greater than 30 µg/mL and 3 to 30 µg/mL, respectively.

As to `CCCCCCCOc1ccccc1C(=O)Nc1ccc(S(=O)(=O)NCC[N+](CC)(CC)CCC)cc1.[Br-]` [Compound 83, N,N-Diethyl-N-(2-((4-(2-(heptyloxy)benzamido)phenyl)sulfonamido)ethyl)propan-1-aminium bromide], the MIC in the assay on A. baumannii was greater than 30 µg/mL; in the assay on S. aureus it was 3 to 30 µg/mL.

`CCCCCCCCOc1ccccc1C(=O)Nc1cccc(C(=O)OCC[N+](C)(CC)CC)c1.[Br-]` [Compound 12, N,N-Diethyl-N-methyl-2-((3-(2-(octyloxy)benzamido)benzoyl)oxy)ethan-1-aminium bromide]: the MIC is greater than 30 µg/mL in the assay on A. baumannii and 3 to 30 µg/mL in the assay on S. aureus.

As to `CCCCCCCCOc1ccccc1C(=O)Nc1ccc(S(=O)(=O)NCC[N+](CC)(CC)CCC)cc1.[Br-]` [Compound 82, N,N-Diethyl-N-(2-((4-(2-(octyloxy)benzamido)phenyl)sulfonamido)ethyl)propan-1-aminium bromide], the MIC in the assay on A. baumannii and in the assay on S. aureus was 3 to 30 µg/mL in each case.

As to `CCCCCCCCOc1ccccc1C(=O)Nc1ccc(C(=O)OCC[N+](CC)(CC)CCC(C)(C)C)cc1.[Br-]` [Compound 47, N,N-Diethyl-3,3-dimethyl-N-(2-((4-(2-(octyloxy)benzamido)benzoyl)oxy)ethyl)-butan-1-aminium bromide], the MIC in the assay with A. baumannii was 3 to 30 µg/mL; in the assay on S. aureus, less than 3 µg/mL.

For `CCCCCCCCOc1ccccc1C(=O)Nc1ccc(C(=O)OCC[N+](CC)(CC)CCC(C)C)cc1.[Br-]` [Compound 63, N,N-Diethyl-3-methyl-N-(2-((4-(2-(octyloxy)benzamido)benzoyl)oxy)ethyl)butan-1-aminium bromide], the MIC with A. baumannii is 3 to 30 µg/mL; in the assay with S. aureus, less than 3 µg/mL.

On to `CCCCCCCCOc1cccc(C(=O)Nc2ccc(C(=O)OCC[N+](C)(CC)CC)cc2)c1.[Br-]` [Compound 32, N,N-Diethyl-N-methyl-2-((4-(3-(octyloxy)benzamido)benzoyl)oxy)ethan-1-aminium bromide], for which the figures for the MIC in the assay with A. baumannii and in the assay on S. aureus were greater than 30 µg/mL and 3 to 30 µg/mL, respectively.

In the case of `CCCCCCOc1ccccc1C(=O)Nc1ccc(C(=O)OCC[N+](CC)(CC)CCCC)cc1.[Br-]` [Compound 67, N,N-Diethyl-N-(2-((4-(2-(hexyloxy)benzamido)benzoyl)oxy)ethyl)butan-1-aminium bromide], the MIC in the assay on A. baumannii was greater than 30 µg/mL; in the assay on S. aureus, 3 to 30 µg/mL.

As for `CCCCCCCCOc1ccccc1C(=O)Nc1ccc(C(=O)OCC[N+](CC)(CC)Cc2cccc(F)c2F)cc1.[Br-]` [Compound 43, N,N-Diethyl-N-(2,3-difluorobenzyl)-2-((4-(2-(octyloxy)benzamido)benzoyl)oxy)-ethan-1-aminium bromide], the MIC in the assay with A. baumannii was 3 to 30 µg/mL; with S. aureus it was less than 3 µg/mL.

For `CCCCCCCCOc1ccccc1C(=O)Nc1ccc(C(=O)OCCCC[N+](C)(C)C)cc1.[I-]` [Compound 46, N,N,N-Trimethyl-4-((4-(2-(octyloxy)benzamido)benzoyl)oxy)butan-1-aminium iodide], the MIC is greater than 30 µg/mL in the assay with A. baumannii and 3 to 30 µg/mL in the assay on S. aureus.

For `CCCCCCCCOc1ccccc1C(=O)Nc1ccc(C(=O)OCC[N+](CC)(CC)CCC)cc1.[Br-]` [Compound 33, N,N-Diethyl-N-(2-((4-(2-(octyloxy)benzamido)benzoyl)oxy)ethyl)propan-1-aminium bromide], the MIC in the assay on A. baumannii was 3 to 30 µg/mL; with S. aureus, less than 3 µg/mL.

`CCCCCOc1ccccc1C(=O)Nc1ccc(C(=O)OCC[N+](CC)(CC)CCC)cc1.[Br-]` [Compound 64, N,N-Diethyl-N-(2-((4-(2-(pentyloxy)benzamido)benzoyl)oxy)ethyl)propan-1-aminium bromide]: the MIC is greater than 30 µg/mL with A. baumannii and 3 to 30 µg/mL with S. aureus.

On to `CCCCCCCCOc1ccccc1C(=O)Nc1ccc(C(=O)OCC[N+](CC)(CC)CCCC)cc1.[Br-]` [Compound 34, N,N-Diethyl-N-(2-((4-(2-(octyloxy)benzamido)benzoyl)oxy)ethyl)butan-1-aminium bromide], for which the figures for the MIC in the assay with A. baumannii and with S. aureus were 3 to 30 µg/mL and less than 3 µg/mL, respectively.

Regarding `CCCCCCCCOc1ccccc1C(=O)Nc1ccc(C(=O)N(C)C2CC[N+](CC)(CCC)CC2)cc1.[Br-]` (centres unmarked) [Compound 74, 1-Ethyl-4-(N-methyl-4-(2-(octyloxy)benzamido)benzamido)-1-propylpiperidin-1-ium bromide], the MIC is greater than 30 µg/mL in the assay on A. baumannii and 3 to 30 µg/mL in the assay with S. aureus.

Turning to `CCCCCCCCOc1ccccc1C(=O)Nc1ccc(C(=O)OCC[N+](CC)(CC)Cc2ccc(C(=O)OC)cc2)cc1.[Br-]` [Compound 51, N,N-Diethyl-N-(4-(methoxycarbonyl)benzyl)-2-((4-(2-(octyloxy)benzamido)-benzoyl)oxy)ethan-1-aminium bromide], the MIC in the assay on A. baumannii is greater than 30 µg/mL; in the assay with S. aureus it was less than 3 µg/mL.

As for `CCCCCCCOc1ccccc1C(=O)Nc1ccc(C(=O)NCC[N+](C)(CC)CC)cc1.[Br-]` [Compound 77, N,N-Diethyl-2-(4-(2-(heptyloxy)benzamido)benzamido)-N-methylethan-1-aminium bromide], the MIC with A. baumannii was greater than 30 µg/mL; in the assay with S. aureus, 3 to 30 µg/mL.

As to `CCCCCCCOc1ccccc1C(=O)Nc1ccc(C(=O)NC2CC[N+](C)(CC)CC2)cc1.[Br-]` (centres unmarked) [Compound 81, 1-Ethyl-4-(4-(2-(heptyloxy)benzamido)benzamido)-1-methylpiperidin-1-ium bromide], the MIC in the assay on A. baumannii and with S. aureus was greater than 30 µg/mL each time.

Take `CCCCCCCOc1ccccc1C(=O)Nc1ccc(S(=O)(=O)NCC[N+](C)(CC)CC)cc1.[Br-]` [Compound 79, N,N-Diethyl-2-((4-(2-(heptyloxy)benzamido)phenyl)sulfonamido)-N-methylethan-1-aminium bromide]: the MIC with A. baumannii was greater than 30 µg/mL; with S. aureus, 3 to 30 µg/mL.

For `CCCCCCCCOc1ccc(C(=O)Nc2ccc(C(=O)OCC[N+](C)(CC)CC)cc2)c(OCCCCCCCC)c1.[Br-]` [Compound 15, 2-((4-(2,4-Bis(octyloxy)benzamido)benzoyl)oxy)-N,N-diethyl-N-methylethan-1-aminium bromide], the MIC in the assay on A. baumannii and in the assay on S. aureus was greater than 30 µg/mL throughout.

Take `CCCCCCCCOc1ccccc1C(=O)Nc1ccc(C(=O)OCC[N+](CC)(CC)CC2CC2)cc1.[Br-]` [Compound 60, N-(Cyclopropylmethyl)-N,N-diethyl-2-((4-(2-(octyloxy)benzamido)benzoyl)oxy)-ethan-1-aminium bromide]: the MIC with A. baumannii and in the assay with S. aureus was 3 to 30 µg/mL each time.

Regarding `CCCCOc1ccccc1C(=O)Nc1ccc(C(=O)OCC[N+](C)(CC)CC)cc1.[Br-]` [Compound 19, 2-((4-(2-Butoxybenzamido)benzoyl)oxy)-N,N-diethyl-N-methylethan-1-aminium bromide], the MIC in the assay with A. baumannii and in the assay on S. aureus was greater than 30 µg/mL each time.

With `CCCCCCCCOc1ccccc1C(=O)Nc1ccc(C(=O)OCC[N+](CC)(CC)CCCCCC)cc1.[Br-]` [Compound 36, N,N-Diethyl-N-(2-((4-(2-(octyloxy)benzamido)benzoyl)oxy)ethyl)hexan-1-aminium bromide], the MIC in the assay with A. baumannii was 3 to 30 µg/mL; in the assay on S. aureus, less than 3 µg/mL.

The values are drawn from US11952330B2, “Antibiotic ammonium compounds and methods for the treatment of bacterial infections” (priority 2019, dated 2024).
